Measured values from ChEMBL document CHEMBL1909046, “DrugMatrix in vitro pharmacology data”.

Key:
[1] = target: T1, Nitric oxide synthase, inducible (Mus musculus, UniProt P29477); set-up: species or system Escherichia coli;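 also: inhibition of iNOS enzyme activity measured with L-arginine as substrate; in other assays of this panel Not Active means under 50% inhibition at 10 µM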
T1 sequence (P29477 whole entry): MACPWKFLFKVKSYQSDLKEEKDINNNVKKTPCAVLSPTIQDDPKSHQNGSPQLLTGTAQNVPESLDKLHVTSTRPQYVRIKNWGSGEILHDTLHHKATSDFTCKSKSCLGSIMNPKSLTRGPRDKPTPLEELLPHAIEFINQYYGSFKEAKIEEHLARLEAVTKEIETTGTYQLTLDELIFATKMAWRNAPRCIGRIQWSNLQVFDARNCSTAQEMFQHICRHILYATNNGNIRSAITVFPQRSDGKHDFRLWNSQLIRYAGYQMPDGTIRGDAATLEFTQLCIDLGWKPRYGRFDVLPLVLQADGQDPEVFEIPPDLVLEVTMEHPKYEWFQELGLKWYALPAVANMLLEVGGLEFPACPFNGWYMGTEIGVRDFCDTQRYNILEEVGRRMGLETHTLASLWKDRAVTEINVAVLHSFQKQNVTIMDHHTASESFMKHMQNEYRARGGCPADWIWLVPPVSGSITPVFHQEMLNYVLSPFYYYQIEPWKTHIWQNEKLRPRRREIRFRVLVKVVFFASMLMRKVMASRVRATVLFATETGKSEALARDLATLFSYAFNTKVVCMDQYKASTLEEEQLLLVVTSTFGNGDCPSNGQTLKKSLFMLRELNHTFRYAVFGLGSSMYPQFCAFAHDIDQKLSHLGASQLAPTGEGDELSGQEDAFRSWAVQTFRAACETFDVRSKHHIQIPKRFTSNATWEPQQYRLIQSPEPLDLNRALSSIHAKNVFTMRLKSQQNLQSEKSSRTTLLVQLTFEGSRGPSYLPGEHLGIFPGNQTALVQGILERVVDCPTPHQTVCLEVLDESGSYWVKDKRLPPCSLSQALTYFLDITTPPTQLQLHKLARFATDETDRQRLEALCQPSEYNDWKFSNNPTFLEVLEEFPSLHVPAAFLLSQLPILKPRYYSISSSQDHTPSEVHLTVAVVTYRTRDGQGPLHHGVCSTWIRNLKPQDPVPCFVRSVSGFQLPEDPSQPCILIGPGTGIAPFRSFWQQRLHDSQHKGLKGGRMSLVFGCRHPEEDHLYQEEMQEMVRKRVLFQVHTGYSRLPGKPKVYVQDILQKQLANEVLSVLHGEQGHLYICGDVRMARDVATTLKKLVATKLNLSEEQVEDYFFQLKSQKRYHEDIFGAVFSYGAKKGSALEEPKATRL

Cytochrome P450 2D6 = Cytochrome P450 2D6 (Homo sapiens, UniProt P10635); conditions: bti-tn-5b1-4; also: in other assays of this panel Not Active means under 50% inhibition at 10 µM
[2] = DRUGMATRIX: ATPase, Na+/K+ enzyme inhibition (substrate: ATP); assay type: tissue-based, Sus scrofa, Heart; conditions: Not Active = under 50% inhibition at 10 µM
Adenosine receptor A3 = target: T2, Adenosine receptor A3 (Homo sapiens, UniProt P0DMS8); assay type: cell membranes, CHO-K1, Membrane; conditions: cho-k1;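 also: radioligand binding assay with AB-MECA serving as the labeled ligand; in other assays of this panel Not Active means under 50% inhibition at 10 µM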
T2 sequence (P0DMS8 whole entry): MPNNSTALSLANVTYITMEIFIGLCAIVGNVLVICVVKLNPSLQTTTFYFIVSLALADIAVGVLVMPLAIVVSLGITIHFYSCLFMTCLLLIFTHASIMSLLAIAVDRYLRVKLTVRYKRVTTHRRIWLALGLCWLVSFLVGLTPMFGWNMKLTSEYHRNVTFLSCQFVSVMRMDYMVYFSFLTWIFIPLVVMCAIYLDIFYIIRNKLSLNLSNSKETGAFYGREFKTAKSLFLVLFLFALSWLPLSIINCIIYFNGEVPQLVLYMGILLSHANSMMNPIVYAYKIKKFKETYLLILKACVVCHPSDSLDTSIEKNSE

[3] = target: Aldo-keto reductase family 1 member B1 (Rattus norvegicus, UniProt P07943); assay type: tissue-based, Lens of camera-type eye;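 also: inhibition of aldose reductase enzyme activity, measured with DL-glyceraldehyde as the substrate; in other assays of this panel Not Active means under 50% inhibition at 10 µM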
[4] = target: Sodium-dependent noradrenaline transporter (Homo sapiens, UniProt P23975); assay: DRUGMATRIX: Norepinephrine Transporter radioligand binding (ligand: [125I] RTI-55); assay type: cell membranes, MDCK, Membrane; conditions: mdck; Not Active = under 50% inhibition at 10 µM
Sodium-dependent noradrenaline transporter, sequence (P23975 whole entry): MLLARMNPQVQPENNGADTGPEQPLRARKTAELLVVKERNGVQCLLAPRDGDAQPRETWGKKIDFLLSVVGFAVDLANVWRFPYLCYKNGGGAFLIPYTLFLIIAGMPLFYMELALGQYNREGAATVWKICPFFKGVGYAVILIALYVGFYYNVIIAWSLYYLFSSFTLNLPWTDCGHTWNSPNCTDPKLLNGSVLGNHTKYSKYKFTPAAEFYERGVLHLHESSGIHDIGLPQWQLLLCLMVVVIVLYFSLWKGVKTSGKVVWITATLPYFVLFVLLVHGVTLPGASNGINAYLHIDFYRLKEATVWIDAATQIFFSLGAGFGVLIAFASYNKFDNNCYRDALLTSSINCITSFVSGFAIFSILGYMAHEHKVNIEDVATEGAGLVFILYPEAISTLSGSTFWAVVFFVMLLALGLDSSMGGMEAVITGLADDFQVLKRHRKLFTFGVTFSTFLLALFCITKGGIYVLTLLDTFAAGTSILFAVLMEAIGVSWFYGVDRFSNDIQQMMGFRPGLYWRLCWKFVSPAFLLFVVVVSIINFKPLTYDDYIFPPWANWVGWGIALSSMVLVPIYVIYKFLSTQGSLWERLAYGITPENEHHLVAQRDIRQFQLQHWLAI

Cytochrome P450 2D6, sequence (P10635 whole entry): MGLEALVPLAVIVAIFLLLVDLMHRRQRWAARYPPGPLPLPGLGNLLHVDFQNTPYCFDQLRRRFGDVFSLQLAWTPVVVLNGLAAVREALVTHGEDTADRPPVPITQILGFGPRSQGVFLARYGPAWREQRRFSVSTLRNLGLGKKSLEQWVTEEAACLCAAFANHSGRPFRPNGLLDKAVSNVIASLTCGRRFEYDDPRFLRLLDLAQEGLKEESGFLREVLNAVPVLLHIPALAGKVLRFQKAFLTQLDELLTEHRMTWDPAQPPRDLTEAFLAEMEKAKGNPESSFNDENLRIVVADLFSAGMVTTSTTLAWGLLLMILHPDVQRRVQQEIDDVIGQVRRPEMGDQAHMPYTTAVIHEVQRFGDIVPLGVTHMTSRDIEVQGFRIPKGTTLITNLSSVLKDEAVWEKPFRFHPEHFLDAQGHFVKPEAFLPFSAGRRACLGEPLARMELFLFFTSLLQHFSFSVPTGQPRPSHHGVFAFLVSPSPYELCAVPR

COc1ccc(C2C(=O)c3ccccc3C2=O)cc1 [ANISINDIONE]
Not Active: IC50 [1] | IC50 (Cytochrome P450 2D6) | Ki (Cytochrome P450 2D6) | IC50 [2] | Ki [2] | IC50 (Adenosine receptor A3) | IC50 [3] | IC50 [4]

O=C1O[C@H]([C@@H](O)CO)C(O)=C1O [ASCORBIC ACID]
Not Active: IC50 [1] | IC50 (Cytochrome P450 2D6) | Ki (Cytochrome P450 2D6) | IC50 [2] | Ki [2] | IC50 (Adenosine receptor A3) | IC50 [3] | IC50 [4]

CC(C(=O)O)c1ccc2oc(-c3ccc(Cl)cc3)nc2c1 (stereo not drawn) [BENOXAPROFEN]
Not Active: IC50 [1] | IC50 (Cytochrome P450 2D6) | Ki (Cytochrome P450 2D6) | IC50 [2] | Ki [2] | IC50 (Adenosine receptor A3) | IC50 [3] | IC50 [4]

O=C(O)CCNC(=O)c1ccccc1 [BETAMIPRON]
Not Active: IC50 [1] | IC50 (Cytochrome P450 2D6) | Ki (Cytochrome P450 2D6) | IC50 [2] | Ki [2] | IC50 (Adenosine receptor A3) | IC50 [3] | IC50 [4]

CC(=O)Oc1ccc(C(c2ccc(OC(C)=O)cc2)c2ccccn2)cc1 [BISACODYL]
Not Active: IC50 [1] | IC50 (Cytochrome P450 2D6) | Ki (Cytochrome P450 2D6) | IC50 [2] | Ki [2] | IC50 (Adenosine receptor A3) | IC50 [3] | IC50 [4]

Brc1c(NC2=NCCN2)ccc2nccnc12 [BRIMONIDINE]
Not Active: IC50 [1] | IC50 (Cytochrome P450 2D6) | Ki (Cytochrome P450 2D6) | IC50 [2] | Ki [2] | IC50 (Adenosine receptor A3) | IC50 [3] | IC50 [4]

CN(C)[C@@H]1C(O)=C(C(N)=O)C(=O)[C@@]2(O)C(O)=C3C(=O)c4c(O)ccc(Cl)c4[C@@](C)(O)[C@H]3C[C@@H]12 [CHLORTETRACYCLINE]
Not Active: IC50 [1] | IC50 (Cytochrome P450 2D6) | Ki (Cytochrome P450 2D6) | IC50 [2] | Ki [2] | IC50 (Adenosine receptor A3) | IC50 [3] | IC50 [4]

CN/C(=N\CCSCc1nc[nH]c1C)NC#N [CIMETIDINE]
Not Active: IC50 [1] | IC50 (Cytochrome P450 2D6) | Ki (Cytochrome P450 2D6) | IC50 [2] | Ki [2] | IC50 (Adenosine receptor A3) | IC50 [3] | IC50 [4]

CCC(=O)O[C@]1(C(=O)CCl)[C@@H](C)C[C@H]2[C@@H]3CCC4=CC(=O)C=C[C@]4(C)[C@@]3(F)[C@@H](O)C[C@@]21C [CLOBETASOL PROPIONATE]
Not Active: IC50 [1] | IC50 (Cytochrome P450 2D6) | Ki (Cytochrome P450 2D6) | IC50 [2] | Ki [2] | IC50 (Adenosine receptor A3) | IC50 [3] | IC50 [4]

O=C1CN=C(c2ccccc2Cl)c2cc([N+](=O)[O-])ccc2N1 [CLONAZEPAM]
Not Active: IC50 [1] | IC50 (Cytochrome P450 2D6) | Ki (Cytochrome P450 2D6) | IC50 [2] | Ki [2] | IC50 (Adenosine receptor A3) | IC50 [3] | IC50 [4]

Nc1ccn([C@@H]2O[C@H](CO)[C@@H](O)[C@@H]2O)c(=O)n1 [CYTARABINE]
Not Active: IC50 [1] | IC50 (Cytochrome P450 2D6) | Ki (Cytochrome P450 2D6) | IC50 [2] | Ki [2] | IC50 (Adenosine receptor A3) | IC50 [3] | IC50 [4]
